Experimental data published in patent publication US12492177B2, “RAR-α compounds for inflammatory disease and male contraception” (Orphagen Pharmaceuticals, Inc., priority 2019, dated 2025).

How the values were obtained:
Type in all cases: cell-based
RARγ [1] = molecular target: T1, RARγ (Homo sapiens, UniProt P13631); assay: RARγ transcriptional assay, antagonist activity; details: in the presence of 0.5 nM TTNPB
T1 sequence (P13631 1-454): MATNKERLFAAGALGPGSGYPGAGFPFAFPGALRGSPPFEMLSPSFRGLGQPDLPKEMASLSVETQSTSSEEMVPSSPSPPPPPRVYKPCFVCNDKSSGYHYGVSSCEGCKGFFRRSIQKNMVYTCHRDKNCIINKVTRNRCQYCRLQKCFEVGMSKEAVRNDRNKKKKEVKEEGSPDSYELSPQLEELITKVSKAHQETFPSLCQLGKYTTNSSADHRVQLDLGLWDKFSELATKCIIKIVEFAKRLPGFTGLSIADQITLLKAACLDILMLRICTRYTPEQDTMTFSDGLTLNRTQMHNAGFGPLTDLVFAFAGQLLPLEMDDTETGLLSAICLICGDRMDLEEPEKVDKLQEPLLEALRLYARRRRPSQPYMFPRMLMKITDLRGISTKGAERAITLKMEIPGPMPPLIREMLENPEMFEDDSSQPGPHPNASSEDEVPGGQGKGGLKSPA
Experimental: (§1) Transcriptional assays for RARα, RARβ and RARγ, which measure the antagonist or agonist like activity of the compounds are described in WO 2017/201200 A1 (Thacher, Crowe, Tao and Raheja, Therapeutic compositions containing RAR-alpha antagonists) published on Nov. 23, 2017, which is also incorporated herein by reference. The results obtained in these assays are expressed as EC50 values when measuring agonist activity and IC50 values when measuring antagonist activity in the presence of 0.5 nM TTNPB, a retinoid agonist.

RARβ [2] = molecular target: T2, RARβ (Homo sapiens, UniProt P10826); assay: RARβ transcriptional assay, agonist activity; details: agonist mode
T2 sequence (P10826 1-455): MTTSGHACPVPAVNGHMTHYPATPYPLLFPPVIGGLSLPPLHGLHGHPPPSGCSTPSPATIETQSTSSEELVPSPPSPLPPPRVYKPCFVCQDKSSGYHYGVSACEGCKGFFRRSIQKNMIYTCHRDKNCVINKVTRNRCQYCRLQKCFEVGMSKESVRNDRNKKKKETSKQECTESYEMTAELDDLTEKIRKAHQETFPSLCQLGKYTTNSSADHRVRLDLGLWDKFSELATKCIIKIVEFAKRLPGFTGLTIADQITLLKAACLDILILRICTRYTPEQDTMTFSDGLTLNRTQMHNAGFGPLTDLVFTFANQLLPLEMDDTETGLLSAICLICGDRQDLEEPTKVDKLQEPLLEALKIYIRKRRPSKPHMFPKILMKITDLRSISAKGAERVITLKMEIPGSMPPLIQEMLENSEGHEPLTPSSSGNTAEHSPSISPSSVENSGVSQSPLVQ
Experimental: as §1

RARβ [3] = molecular target: T2, RARβ; assay: RARβ transcriptional assay, antagonist activity; details: in the presence of 0.5 nM TTNPB
Experimental: as §1

RARα [4] = molecular target: T3, RARα (Homo sapiens, UniProt P10276); assay: RARα transcriptional assay, antagonist activity; details: in the presence of 0.5 nM TTNPB
T3 sequence (P10276 1-462): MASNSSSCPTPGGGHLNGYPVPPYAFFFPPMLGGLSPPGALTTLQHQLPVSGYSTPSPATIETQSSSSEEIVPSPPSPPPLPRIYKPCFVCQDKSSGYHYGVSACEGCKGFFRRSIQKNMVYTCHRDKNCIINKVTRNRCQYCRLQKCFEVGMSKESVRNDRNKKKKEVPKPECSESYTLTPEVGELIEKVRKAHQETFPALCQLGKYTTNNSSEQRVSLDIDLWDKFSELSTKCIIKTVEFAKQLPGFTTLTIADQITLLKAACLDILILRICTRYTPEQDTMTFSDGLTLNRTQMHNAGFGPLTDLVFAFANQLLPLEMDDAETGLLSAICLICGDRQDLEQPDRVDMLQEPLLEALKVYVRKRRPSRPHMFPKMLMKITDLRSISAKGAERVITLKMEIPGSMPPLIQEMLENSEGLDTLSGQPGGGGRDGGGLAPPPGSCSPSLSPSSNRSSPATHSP
Experimental: as §1

RARγ [5] = molecular target: T1, RARγ; assay: RARγ transcriptional assay, agonist activity; details: agonist mode
Experimental: as §1

RARα [6] = molecular target: T3, RARα; assay: RARα transcriptional assay, agonist activity; details: agonist mode
Experimental: as §1

| SMILES | IC50 (RARγ [1]) | EC50 (RARβ [2]) | IC50 (RARβ [3]) | IC50 (RARα [4]) | EC50 (RARγ [5]) | EC50 (RARα [6]) | Antagonist Activity RARα Efficacy (RARα [4]) |
| --- | --- | --- | --- | --- | --- | --- | --- |
| CN1CCC(C2=CC(C)(C)Oc3c(Br)cc(C(=O)Nc4ccc(C(=O)O)c(F)c4)cc32)CC1 [Compound 32] | > 1000 nM | > 1000 nM | > 1000 nM | > 1000 nM | > 1000 nM | > 1000 nM | – |
| CC(C)C1=CC(C)(C)Oc2c(Br)cc(C(=O)Nc3ccc(C(=O)O)c(F)c3)cc21 [Compound 33] | > 1000 nM | 11 to 100 nM | > 1000 nM | > 1000 nM | 101 to 1000 nM | < 1 nM | – |
| CC1(C)C=C(C2CCOCC2)c2cc(C(=O)Nc3ccc(C(=O)O)c(F)c3)cc(Br)c2O1 [Compound 34] | > 1000 nM | 101 to 1000 nM | > 1000 nM | 11 to 100 nM | 101 to 1000 nM | 101 to 1000 nM | † (†, RARα antagonist efficacy >85%) |
| CC1CCC(C2=CC(C)(C)Oc3c(Br)cc(C(=O)Nc4ccc(C(=O)O)c(F)c4)cc32)CC1 (stereo not drawn) [Compound 35] | > 1000 nM | > 1000 nM | 11 to 100 nM | < 1 nM | > 1000 nM | > 1000 nM | † (†, RARα antagonist efficacy >85%) |

Other lines, results leading:

| IC50 (RARγ [1]) | EC50 (RARβ [2]) | IC50 (RARβ [3]) | IC50 (RARα [4]) | EC50 (RARγ [5]) | EC50 (RARα [6]) | Antagonist Activity RARα Efficacy (RARα [4]) | SMILES |
| --- | --- | --- | --- | --- | --- | --- | --- |
| > 1000 nM | > 1000 nM | > 1000 nM | < 1 nM | > 1000 nM | > 1000 nM | † (†, RARα antagonist efficacy >85%) | CC1(C)C=C([C@H]2CC[C@@H](C)CC2)c2cc(C(=O)Nc3ccc(C(=O)O)c(F)c3)cc(Br)c2O1 [Compound 36] |
| > 1000 nM | 101 to 1000 nM | > 1000 nM | 1 to 10 nM | > 1000 nM | 11 to 100 nM | – | CC#CC1=CC(C)(C)Oc2c(Br)cc(C(=O)Nc3ccc(C(=O)O)c(F)c3)cc21 [Compound 37] |
| 11 to 100 nM | > 1000 nM | 11 to 100 nM | < 1 nM | > 1000 nM | > 1000 nM | † (†, RARα antagonist efficacy >85%) | CC1(C)CCC(C2=CC(C)(C)Oc3c(Br)cc(C(=O)Nc4ccc(C(=O)O)c(F)c4)cc32)CC1 [Compound 38] |
| 101 to 1000 nM | > 1000 nM | 101 to 1000 nM | < 1 nM | > 1000 nM | > 1000 nM | † (†, RARα antagonist efficacy >85%) | CC[C@H]1CC[C@H](C2=CC(C)(C)Oc3c(Br)cc(C(=O)Nc4ccc(C(=O)O)c(F)c4)cc32)CC1 [Compound 39] |
| > 1000 nM | > 1000 nM | > 1000 nM | < 1 nM | > 1000 nM | > 1000 nM | † (†, RARα antagonist efficacy >85%) | CC[C@H]1CC[C@@H](C2=CC(C)(C)Oc3c(Br)cc(C(=O)Nc4ccc(C(=O)O)c(F)c4)cc32)CC1 [Compound 40] |
